Assay in all cases: Kinase panel study
Type in all cases: biochemical
Conditions in all cases: read-out: Percentage of inhibition; for inhibition at 1 µM: 1000nM; for inhibition at 10 µM: 10000nM

The target in one assay is T1, PTK2B (FAK2) (Homo sapiens, UniProt Q14289).
T1 construct: purchased Thermo Fisher Scientific
The method in brief:
(§1)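 ZLyte/Adapta biochemical kinase assays, standard operating procedures; % inhibition at 1 µM or 10 µM test compound; IC50 determined in panel.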

A further assay concerns the target T2, PRKG2 (PKG2) (Homo sapiens, UniProt Q13237).
T2 construct: purchased Thermo Fisher Scientific
T2 sequence (Q13237 1-762): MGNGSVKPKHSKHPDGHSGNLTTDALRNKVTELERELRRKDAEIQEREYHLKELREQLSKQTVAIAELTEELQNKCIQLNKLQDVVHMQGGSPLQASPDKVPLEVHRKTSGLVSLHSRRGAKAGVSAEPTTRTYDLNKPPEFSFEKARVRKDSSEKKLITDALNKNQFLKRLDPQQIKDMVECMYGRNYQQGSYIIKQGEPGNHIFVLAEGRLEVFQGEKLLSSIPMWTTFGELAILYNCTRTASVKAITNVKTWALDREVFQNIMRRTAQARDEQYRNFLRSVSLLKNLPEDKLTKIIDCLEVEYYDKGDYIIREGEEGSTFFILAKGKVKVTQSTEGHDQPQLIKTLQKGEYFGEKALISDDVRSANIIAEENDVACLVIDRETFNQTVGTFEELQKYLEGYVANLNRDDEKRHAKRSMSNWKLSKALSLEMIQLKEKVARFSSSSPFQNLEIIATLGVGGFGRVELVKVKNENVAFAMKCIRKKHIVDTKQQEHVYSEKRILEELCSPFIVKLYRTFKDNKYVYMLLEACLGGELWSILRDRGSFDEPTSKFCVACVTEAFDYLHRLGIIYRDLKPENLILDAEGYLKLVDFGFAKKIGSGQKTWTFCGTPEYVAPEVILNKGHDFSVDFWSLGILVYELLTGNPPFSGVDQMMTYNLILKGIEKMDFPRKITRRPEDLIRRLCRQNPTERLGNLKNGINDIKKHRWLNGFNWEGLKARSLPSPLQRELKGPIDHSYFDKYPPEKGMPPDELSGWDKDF
The method in brief:
as §1

The target of a further assay is T3, TYRO3 (RSE) (Homo sapiens, UniProt Q06418).
T3 construct: purchased Thermo Fisher Scientific
T3 sequence (Q06418 41-890): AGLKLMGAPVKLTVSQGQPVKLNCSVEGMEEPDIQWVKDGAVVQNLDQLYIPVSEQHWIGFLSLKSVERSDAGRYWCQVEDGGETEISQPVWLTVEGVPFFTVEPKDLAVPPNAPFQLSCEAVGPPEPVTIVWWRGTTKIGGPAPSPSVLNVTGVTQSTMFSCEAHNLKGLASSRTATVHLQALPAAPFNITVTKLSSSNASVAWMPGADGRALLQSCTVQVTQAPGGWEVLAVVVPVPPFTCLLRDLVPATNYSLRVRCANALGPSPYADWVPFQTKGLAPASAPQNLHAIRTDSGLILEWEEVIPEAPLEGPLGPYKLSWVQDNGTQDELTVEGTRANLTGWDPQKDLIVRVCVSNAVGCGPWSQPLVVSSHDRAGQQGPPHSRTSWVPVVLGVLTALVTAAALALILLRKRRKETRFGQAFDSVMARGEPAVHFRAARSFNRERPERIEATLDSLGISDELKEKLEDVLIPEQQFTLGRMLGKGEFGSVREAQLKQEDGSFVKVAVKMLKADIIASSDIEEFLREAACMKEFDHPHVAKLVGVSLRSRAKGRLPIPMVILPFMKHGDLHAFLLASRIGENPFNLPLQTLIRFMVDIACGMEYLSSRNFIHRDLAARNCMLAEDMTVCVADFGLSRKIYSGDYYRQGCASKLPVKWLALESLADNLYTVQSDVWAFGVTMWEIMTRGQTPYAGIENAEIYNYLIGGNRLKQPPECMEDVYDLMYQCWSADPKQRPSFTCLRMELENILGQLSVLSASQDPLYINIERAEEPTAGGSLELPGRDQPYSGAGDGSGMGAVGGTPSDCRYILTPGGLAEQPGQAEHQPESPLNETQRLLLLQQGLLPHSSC
The method in brief: as §1

The target in a further assay is T4, SNF1LK2 (Homo sapiens, UniProt Q9H0K1).
T4 construct: purchased Thermo Fisher Scientific
The method in brief: as §1

A further assay has as its target T5, CSNK2A2 (CK2 alpha 2) (Homo sapiens, UniProt P19784).
T5 construct: purchased Thermo Fisher Scientific
The method in brief:
as §1

The values below come from patent EP4467141A1, “PYRAZOLO-QUINOLINES AS SELECTIVE INHIBITORS OF GENOTOXIC STRESS-INDUCED IKK/NF- KB PATHWAYS FOR CANCER THERAPY” (Max-Delbrück-Centrum für Molekulare Medizin in der …, priority 2023, dated 2024).

A word on the inhibition: it is the relative decrease from the control value, in per cent.

Each structure is given as a SMILES string.

T5 sequence (P19784 whole entry): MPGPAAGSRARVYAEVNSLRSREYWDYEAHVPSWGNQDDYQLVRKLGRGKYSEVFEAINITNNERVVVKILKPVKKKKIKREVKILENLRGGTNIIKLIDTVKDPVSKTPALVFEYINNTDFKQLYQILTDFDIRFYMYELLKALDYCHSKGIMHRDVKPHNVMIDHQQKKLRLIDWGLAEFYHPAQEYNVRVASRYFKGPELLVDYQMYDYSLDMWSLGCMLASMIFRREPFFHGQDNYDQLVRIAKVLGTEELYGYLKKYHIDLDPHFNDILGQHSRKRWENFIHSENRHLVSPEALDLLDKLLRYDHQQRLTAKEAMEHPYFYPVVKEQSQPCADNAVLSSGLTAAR
T4 sequence (Q9H0K1 whole entry): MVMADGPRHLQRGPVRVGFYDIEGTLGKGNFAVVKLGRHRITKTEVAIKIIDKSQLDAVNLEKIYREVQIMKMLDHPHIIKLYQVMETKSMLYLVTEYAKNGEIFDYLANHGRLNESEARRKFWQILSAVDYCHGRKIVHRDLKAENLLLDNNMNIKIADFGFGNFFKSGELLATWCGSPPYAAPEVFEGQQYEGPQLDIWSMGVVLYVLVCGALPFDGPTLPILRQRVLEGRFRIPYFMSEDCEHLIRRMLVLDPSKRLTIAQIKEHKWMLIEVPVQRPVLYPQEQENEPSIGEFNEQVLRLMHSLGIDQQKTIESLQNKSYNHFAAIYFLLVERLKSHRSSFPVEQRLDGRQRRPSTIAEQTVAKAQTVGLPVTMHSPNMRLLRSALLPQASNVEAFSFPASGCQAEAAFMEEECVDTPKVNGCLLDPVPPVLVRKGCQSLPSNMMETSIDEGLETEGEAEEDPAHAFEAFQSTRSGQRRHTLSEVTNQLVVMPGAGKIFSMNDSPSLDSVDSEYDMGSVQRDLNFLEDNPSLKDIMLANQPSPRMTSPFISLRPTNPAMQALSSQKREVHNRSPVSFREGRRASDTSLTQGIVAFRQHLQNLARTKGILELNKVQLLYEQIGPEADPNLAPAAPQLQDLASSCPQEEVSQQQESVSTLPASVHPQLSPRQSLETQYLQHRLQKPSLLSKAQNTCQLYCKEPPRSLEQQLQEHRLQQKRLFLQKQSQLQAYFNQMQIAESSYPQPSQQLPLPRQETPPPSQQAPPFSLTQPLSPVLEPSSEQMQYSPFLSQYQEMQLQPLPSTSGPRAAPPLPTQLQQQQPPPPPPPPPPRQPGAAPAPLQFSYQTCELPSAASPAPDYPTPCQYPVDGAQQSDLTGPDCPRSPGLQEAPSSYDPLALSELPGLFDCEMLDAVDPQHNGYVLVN
T1 sequence (Q14289 whole entry): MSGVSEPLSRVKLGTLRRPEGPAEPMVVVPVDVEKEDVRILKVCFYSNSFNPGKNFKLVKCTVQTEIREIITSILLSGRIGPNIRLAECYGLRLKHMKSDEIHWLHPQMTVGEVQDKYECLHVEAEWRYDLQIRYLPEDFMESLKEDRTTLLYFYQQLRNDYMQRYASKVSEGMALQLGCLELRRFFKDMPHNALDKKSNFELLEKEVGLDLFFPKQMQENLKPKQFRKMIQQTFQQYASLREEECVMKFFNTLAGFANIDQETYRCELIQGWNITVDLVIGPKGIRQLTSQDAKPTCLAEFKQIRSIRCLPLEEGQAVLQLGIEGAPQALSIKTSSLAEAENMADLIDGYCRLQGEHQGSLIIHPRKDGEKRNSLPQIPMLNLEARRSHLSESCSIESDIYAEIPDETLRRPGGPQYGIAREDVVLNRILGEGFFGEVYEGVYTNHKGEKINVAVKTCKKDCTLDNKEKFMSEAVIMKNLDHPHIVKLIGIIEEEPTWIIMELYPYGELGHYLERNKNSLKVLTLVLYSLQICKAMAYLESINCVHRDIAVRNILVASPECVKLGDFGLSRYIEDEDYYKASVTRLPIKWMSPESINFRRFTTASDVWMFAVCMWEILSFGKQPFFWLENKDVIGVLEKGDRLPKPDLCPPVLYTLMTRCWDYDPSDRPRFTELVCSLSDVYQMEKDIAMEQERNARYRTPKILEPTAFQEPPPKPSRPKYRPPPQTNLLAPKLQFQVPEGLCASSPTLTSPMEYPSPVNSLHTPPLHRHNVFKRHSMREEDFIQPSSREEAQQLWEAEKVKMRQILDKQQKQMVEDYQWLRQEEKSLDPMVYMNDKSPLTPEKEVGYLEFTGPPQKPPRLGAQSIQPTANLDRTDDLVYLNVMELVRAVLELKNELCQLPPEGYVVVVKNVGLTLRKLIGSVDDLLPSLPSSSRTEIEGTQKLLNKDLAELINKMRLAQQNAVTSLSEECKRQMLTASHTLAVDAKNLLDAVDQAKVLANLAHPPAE

As to `COc1ccc2c(c1OC)c(=O)n1c3ccc(O)cc3c3ccnc2c31` [MW01, 5-Hydroxy-10,11-dimethoxy-9H-benzo[c]indolo[3,2,1-ij][1,5]naphthyridin-9-one], the inhibition at 1 µM at PTK2B (FAK2) was found to be 2%; on PRKG2 (PKG2), 47%; at TYRO3 (RSE), 11%; on SNF1LK2, 5%; on CSNK2A2 (CK2 alpha 2), 16%. For the same compound, the inhibition at 10 µM is 9% on PTK2B (FAK2); 72% on PRKG2 (PKG2); 29% on TYRO3 (RSE); 12% on SNF1LK2; 29% at CSNK2A2 (CK2 alpha 2).
Turning to `COc1ccc2cc3c(N)nn(C(=O)c4cccc(N(C)C)c4)c3nc2c1` [MW05, (3-Amino-7-methoxypyrazolo[3,4-b]quinolin-1-yl)-[3-(dimethylamino)phenyl]methanone], the inhibition at 1 µM is -2% at PTK2B (FAK2); 7% on PRKG2 (PKG2); 7% on TYRO3 (RSE); 4% at SNF1LK2; 7% at CSNK2A2 (CK2 alpha 2). Further, the inhibition at 10 µM at PTK2B (FAK2) is -7%; on PRKG2 (PKG2), 0%; at TYRO3 (RSE), 2%; on SNF1LK2 it was -2%; at CSNK2A2 (CK2 alpha 2), 4%.
